Consider 14 compounds from patent US8933018B2, “Boron containing polybasic bacterial efflux pump inhibitors and therapeutic uses thereof” (priority 2011, dated 2015).

Molecules are shown by their SMILES.

In the assay the test system is P. aeruginosa, PAM1723, overexpressing the MexAB-OprM efflux pump. In kind it is cell-based, Pseudomonas aeruginosa. The conditions noted are these: lowest EPI concentration giving antibacterial activity with levofloxacin at 1/8 of its MIC, MHB, 20 h at 35° C. The procedure:
All EPI compounds were readily soluble in water and stock solutions were prepared at a final concentration of 10 mg/ml. Stock solutions were further diluted, according to the needs of the particular assay, in Mueller Hinton Broth (MHB). Stock solution was stored at […].
The checkerboard assay was performed in microtiter plates. […] EPIs were diluted in the y-axis, each row containing a single concentration of an EPI. […] The assay was performed in MHB with a final bacterial inoculum of 5 times 10^5 CFU/ml (from an early-log phase culture). Microtiter plates were incubated during 20 h at 35° C. and were read using a microtiter plate reader (Molecular Devices) at 650 nm as well as visual observation using a microtiter plate-reading mirror.
Turning to `NCCN(CCN)C(=O)CC[C@H](N)C(=O)N[C@H](CCc1ccc(C(F)(F)F)cc1)C(=O)Nc1cc(F)cc(B(O)O)c1` [Compound 33, 3-((R)-2-((S)-2-amino-5-(bis(2-aminoethyl)amino)-5-oxopentanamido)-4-(4-(trifluoromethyl)phenyl)butanamido)-5-fluorophenylboronic acid], the “MPC8 (Minimum Potentiating Concentration)” value (“MPC8” below) is “A (A = MPC8 of less than 2.5 μg/mL.)”. For `NCCN(CCN)C(=O)CC[C@H](N)C(=O)N[C@H](CCc1ccc(C(F)(F)F)cc1)C(=O)Nc1cc(F)c(F)c(B(O)O)c1` [Compound 34, 5-((R)-2-((S)-2-amino-5-(bis(2-aminoethyl)amino)-5-oxopentanamido)-4-(4-(trifluoromethyl)phenyl)butanamido)-2,3-difluorophenylboronic acid], the “MPC8” value is reported as “C (C = MPC8 of 10 μg/mL or greater.)”. Then `NCCN(CCN)C(=O)CC[C@H](N)C(=O)N[C@H](CCc1ccc(C(F)(F)F)cc1)C(=O)Nc1ccc(B(O)O)cc1F` [Compound 35, 4-((R)-2-((S)-2-amino-5-(bis(2-aminoethyl)amino)-5-oxopentanamido)-4-(4-(trifluoromethyl)phenyl)butanamido)-3-fluorophenylboronic acid], with “B (B = MPC8 of 2.5 μg/ml to less than 10 μg/mL.)”; and `NCCN(CCN)C(=O)CC[C@H](N)C(=O)N[C@H](CCc1ccc(C(F)(F)F)cc1)C(=O)NC[C@@H]1OB(O)c2ccccc21` [Compound 37, (S)-2-amino-N5,N5-bis(2-aminoethyl)-N1-((R)-1-(((R)-1-hydroxy-1,3-dihydrobenzo[c][1,2]oxaborol-3-yl)methylamino)-1-oxo-4-(4-(trifluoromethyl)phenyl)butan-2-yl)pentanediamide], with “A (A = MPC8 of less than 2.5 μg/mL.)”; and `CC1(C)OB(O)c2cc(NC(=O)[C@@H](CCc3ccc(C(F)(F)F)cc3)NC(=O)[C@@H](N)CCC(=O)N[C@@H]3C[C@H](N)C[C@H](N)C3)ccc21` [Compound 38, (S)-2-amino-N5-((1s,3R,5S)-3,5-diaminocyclohexyl)-N1-((R)-1-(1-hydroxy-3,3-dimethyl-1,3-dihydrobenzo[c][1,2]oxaborol-6-ylamino)-1-oxo-4-(4-(trifluoromethyl)phenyl)butan-2-yl)pentanediamide], with “A (A = MPC8 of less than 2.5 μg/mL.)”. To `CC1(C)OB(O)c2cc(NC(=O)[C@@H](CCc3ccc(C(F)(F)F)cc3)NC(=O)[C@@H](N)CCC(=O)NC(CN)CN)ccc21` [Compound 39, (S)-2-amino-N^5-(1,3-diaminopropan-2-yl)-N^1-((R)-1-(1-hydroxy-3,3-dimethyl-1,3-dihydrobenzo[c][1,2]oxaborol-6-ylamino)-1-oxo-4-(4-(trifluoromethyl)phenyl)butan-2-yl)pentanediamide] belongs “A (A = MPC8 of less than 2.5 μg/mL.)”.

Regarding `CC1(C)OB(O)c2cc(NC(=O)[C@@H](CCc3ccc(C(F)(F)F)cc3)NC(=O)[C@@H](N)CCC(=O)N(C[C@@H](O)CN)C[C@@H](O)CN)ccc21` [Compound 40, (S)-2-amino-N^5,N^5-bis((S)-3-amino-2-hydroxypropyl)-N^1-((R)-1-(1-hydroxy-3,3-dimethyl-1,3-dihydrobenzo[c][1,2]oxaborol-6-ylamino)-1-oxo-4-(4-(trifluoromethyl)phenyl)butan-2-yl)pentanediamide], the “MPC8” value is on record as “B (B = MPC8 of 2.5 μg/ml to less than 10 μg/mL.)”. Then `CC1(C)OB(O)c2cc(NC(=O)[C@@H](CCc3ccc(C(F)(F)F)cc3)NC(=O)[C@@H](N)CCC(=O)N3C[C@@H](N)C[C@H]3CN)ccc21` [Compound 41, (S)-2-amino-5-((2S,4S)-4-amino-2-(aminomethyl)pyrrolidin-1-yl)-N-((R)-1-(1-hydroxy-3,3-dimethyl-1,3-dihydrobenzo[c][1,2]oxaborol-6-ylamino)-1-oxo-4-(4-(trifluoromethyl)phenyl)butan-2-yl)-5-oxopentanamide], with “B (B = MPC8 of 2.5 μg/ml to less than 10 μg/mL.)”. To `CC1(C)OB(O)c2cc(NC(=O)[C@@H](CCc3ccc(C(F)(F)F)cc3)NC(=O)[C@@H](N)CCC(=O)N3C4CCC3[C@H](CN)[C@@H]4CN)ccc21` [Compound 42, (2S)-2-amino-5-((2R,3S)-2,3-bis(aminomethyl)-7-azabicyclo[2.2.1]heptan-7-yl)-N-((R)-1-(1-hydroxy-3,3-dimethyl-1,3-dihydrobenzo[c][1,2]oxaborol-6-ylamino)-1-oxo-4-(4-(trifluoromethyl)phenyl)butan-2-yl)-5-oxopentanamide] belongs “A (A = MPC8 of less than 2.5 μg/mL.)”; to `NCCN(CCN)C(=O)CC[C@H](N)C(=O)N[C@H](Cc1ccc(C(F)(F)F)cc1)C(=O)Nc1cnc2ccc(B(O)O)cc2c1` [Compound 43, 3-((R)-2-((S)-2-amino-5-(bis(2-aminoethyl)amino)-5-oxopentanamido)-3-(4-(trifluoromethyl)phenyl)propanamido)quinolin-6-ylboronic acid], “B (B = MPC8 of 2.5 μg/ml to less than 10 μg/mL.)”. Then `NCCN(CCN)C(=O)CC[C@H](N)C(=O)N[C@H](CCc1ccc(C(F)(F)F)cc1)C(=O)Nc1cnc2ccc(B(O)O)cc2c1` [Compound 44, 3-((R)-2-((S)-2-amino-5-(bis(2-aminoethyl)amino)-5-oxopentanamido)-4-(4-(trifluoromethyl)phenyl)butanamido)quinolin-6-ylboronic acid], with “A (A = MPC8 of less than 2.5 μg/mL.)”; and `N[C@@H]1C[C@H](N)C[C@H](NC(=O)CC[C@H](N)C(=O)N[C@H](CCc2ccc(C(F)(F)F)cc2)C(=O)Nc2ccc3c(c2)B(O)OC3)C1` [Compound 66, (S)-2-amino-N^5-((1s,3R,5S)-3,5-diaminocyclohexyl)-N^1-((R)-1-(1-hydroxy-1,3-dihydrobenzo[c][1,2]oxaborol-6-ylamino)-1-oxo-4-(4-(trifluoromethyl)phenyl)butan-2-yl)pentanediamide], with “B (B = MPC8 of 2.5 μg/ml to less than 10 μg/mL.)”; and `CC1(C)OB(O)c2cc(NC(=O)[C@@H](Cc3ccc(C(F)(F)F)cc3)NC(=O)[C@@H](N)CCC(=O)N3C[C@H](N)C[C@H](N)C3)ccc21` [Compound 67, (S)-2-amino-5-((3R,5S)-3,5-diaminopiperidin-1-yl)-N-((R)-1-(1-hydroxy-3,3-dimethyl-1,3-dihydrobenzo[c][1,2]oxaborol-6-ylamino)-1-oxo-3-(4-(trifluoromethyl)phenyl)propan-2-yl)-5-oxopentanamide], with “B (B = MPC8 of 2.5 μg/ml to less than 10 μg/mL.)”.

Take `CC1(C)OB(O)c2cc(NC(=O)[C@@H](Cc3ccc(C(F)(F)F)cc3)NC(=O)[C@@H](N)CCC(=O)N3C[C@@H](N)C[C@H](N)C3)ccc21` [Compound 74, (S)-2-amino-5-((3S,5S)-3,5-diaminopiperidin-1-yl)-N-((R)-1-(1-hydroxy-3,3-dimethyl-1,3-dihydrobenzo[c][1,2]oxaborol-6-ylamino)-1-oxo-3-(4-(trifluoromethyl)phenyl)propan-2-yl)-5-oxopentanamide]: the “MPC8” value is listed as “B (B = MPC8 of 2.5 μg/ml to less than 10 μg/mL.)”.
